Literature values, collected in patent US20210123868A1, “REAGENT COMPOSITION FOR PH MEASUREMENT” (MIURA CO., LTD., priority 2018, published 2021).

Conditions: value at 25° C.

Molecule | acid dissociation constant (pKa)
Cc1c(C2(c3cc(Br)c(O)c(Br)c3C)OS(=O)(=O)c3ccccc32)cc(Br)c(O)c1Br [bromocresol green] | 4.7
Cc1cc(C2(c3cc(C)c(O)c(Br)c3)OS(=O)(=O)c3ccccc32)cc(Br)c1O [bromocresol purple] | 6.3
alizarin yellow | 11.06
